Results published in patent US20030060472A1, “Novel substituted nitrocatechols, their use in the treatment of some central and peripheral nervous system disorders and pharmaceutical compositions containing them” (priority 2001, published 2003).

Assays:
Brain COMT = test: Ex vivo COMT activity in mice brain homogenates after administration by gastric tube; conditions: for Brain COMT (% of control) 1 h / Brain COMT (% of control) 6 h: mice brain homogenates, means ± S.E.M. of 4-8; for Brain COMT (% of control) 1 h: 1 h after administration by gastric tube; for Brain COMT (% of control) 6 h: 6 h after administration by gastric tube; for Duration of COMT inhibition and activity in the brain: conclusion from the mice study
Liver COMT = test: Ex vivo COMT activity in mice liver homogenates after administration by gastric tube; conditions: for Potency upon liver COMT compared with brain COMT: mice, after oral administration; for Liver COMT (% of control) 1 h / Liver COMT (% of control) 6 h: mice liver homogenates, means ± S.E.M. of 4-8; for Liver COMT (% of control) 1 h: 1 h after administration by gastric tube; for Liver COMT (% of control) 6 h: 6 h after administration by gastric tube
COMT = molecular target: T1, COMT (Homo sapiens, UniProt P21964); test: COMT activity (O-methylation of adrenaline to metanephrine) in intact SK-N-SH cells; type: cell-based; conditions: test compound 100 nM, means ± SEM, n = 4-8
T1 construct: O-methylationof adrenaline in intact SK-N-SH cells; host or cells: SK-N-SH cells
T1 sequence (P21964 1-271): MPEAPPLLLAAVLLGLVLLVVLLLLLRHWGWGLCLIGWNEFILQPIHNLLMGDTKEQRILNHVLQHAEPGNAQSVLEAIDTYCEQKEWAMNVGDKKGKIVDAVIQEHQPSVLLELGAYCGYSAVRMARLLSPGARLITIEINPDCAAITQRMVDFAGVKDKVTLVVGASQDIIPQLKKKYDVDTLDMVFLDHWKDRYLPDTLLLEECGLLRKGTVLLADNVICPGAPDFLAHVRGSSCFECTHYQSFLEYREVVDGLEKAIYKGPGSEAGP

| Structure (SMILES) | Brain COMT (% of control) 1 h (Brain COMT) | Brain COMT (% of control) 6 h (Brain COMT) | Potency upon liver COMT compared with brain COMT (Liver COMT) | Duration of COMT inhibition and activity in the brain (Brain COMT) | also measured |
| --- | --- | --- | --- | --- | --- |
| Cl.O=C(CN1CCCCCC1)c1cc(O)c(O)c([N+](=O)[O-])c1 [Compound 1, 2-Azepan-1-yl-1-(3,4-dihydroxy-5-nitro-phenyl)-ethanone hydrochloride] | 45.0 ± 15.0 % of control | 102.0 ± 19.0 % of control |  |  |  |
| Cl.O=C(CCN1CCCCC1)c1cc(O)c(O)c([N+](=O)[O-])c1 [Compound 2, 1-(3,4-Dihydroxy-5-nitro-phenyl)-3-piperidin-1-yl-propan-1-one hydrochloride] |  |  | much more potent upon liver COMT than brain COMT | long acting COMT inhibitor with limited activity in the brain |  |
| Cl.O=C(CC(c1ccccc1)N1CCCCC1)c1cc(O)c(O)c([N+](=O)[O-])c1 (stereo not shown) [Compound 3, 1-(3,4-Dihydroxy-5-nitro-phenyl)-3-phenyl-3-piperidin-1-yl-propan-1-one hydrochloride] |  |  | much more potent upon liver COMT than brain COMT | long acting COMT inhibitor with limited activity in the brain |  |
| Cl.O=C(CC(c1ccccc1)N1CCOCC1)c1cc(O)c(O)c([N+](=O)[O-])c1 (stereo not shown) [Compound 5, 1-(3,4-Dihydroxy-5-nitro-phenyl)-3-morpholin-4-yl-3-phenyl-propan-1-one hydrochloride] |  |  | equally potent in inhibiting liver and brain COMT activity |  |  |
| CC1CCCCN1CC(=O)c1cc(O)c(O)c([N+](=O)[O-])c1.Cl (stereo not shown) [Compound 6, 1-(3,4-Dihydroxy-5-nitro-phenyl)-2-(2-methyl-piperidin-1-yl)-ethanone hydrochloride] | 37.0 ± 3.3 % of control | 66.0 ± 2.6 % of control |  |  |  |
| CCN(CC)C(C)C(=O)c1cc(O)c(O)c([N+](=O)[O-])c1.Cl (stereo not shown) [Compound 7, 2-Diethylamino-1-(3,4-dihydroxy-5-nitro-phenyl)-propan-1-one hydrochloride] | 74.0 ± 12.0 % of control | 126.0 ± 8.0 % of control |  |  | Liver COMT (% of control) 1 h (Liver COMT): 38.4 ± 2.8 % of control; Liver COMT (% of control) 6 h (Liver COMT): 57.1 ± 4.9 % of control; COMT activity (% of control) (COMT): 9.0 ± 0.2 % of control |
| O=C(COc1ccc2ccccc2c1)c1cc(O)c(O)c([N+](=O)[O-])c1 [Compound 10, 1-(3,4-Dihydroxy-5-nitro-phenyl)-2-(naphthalen-2-yloxy)-ethanone] |  |  | much more potent upon liver COMT than brain COMT | long acting COMT inhibitor with limited activity in the brain |  |
| CC1CN(CC(=O)c2cc(O)c(O)c([N+](=O)[O-])c2)CC(C)O1.Cl (stereo not shown) [Compound 11, 1-(3,4-Dihydroxy-5-nitro-phenyl)-2-(2,6-dimethyl-morpholin-4-yl)-ethanone hydrochloride] | 80.0 ± 5.0 % of control | 103.0 ± 7.0 % of control |  |  |  |
| CC1CC(C)CN(CC(=O)c2cc(O)c(O)c([N+](=O)[O-])c2)C1.Cl (stereo not shown) [Compound 12, 1-(3,4-Dihydroxy-5-nitro-phenyl)-2-(3,5-dimethyl-piperidin-1-yl)-ethanone hydrochloride] | 32.0 ± 2.0 % of control | 84.0 ± 6.0 % of control |  |  |  |
| Cl.N#CC1(c2ccccc2)CCN(CCC(=O)c2cc(O)c(O)c([N+](=O)[O-])c2)CC1 [Compound 15, 1-[3-(3,4-Dihydroxy-5-nitro-phenyl)-3-oxo-propyl]-4-phenyl-piperidine-4-carbonitrile hydrochloride] | 93.0 ± 9.0 % of control | 122.0 ± 9.0 % of control |  |  | Liver COMT (% of control) 1 h (Liver COMT): 51.7 ± 5.9 % of control; Liver COMT (% of control) 6 h (Liver COMT): 37.9 ± 8.4 % of control; COMT activity (% of control) (COMT): 2.9 ± 0.3 % of control |
| Cl.O=C(CCN1CCCCCCC1)c1cc(O)c(O)c([N+](=O)[O-])c1 [Compound 16, 3-Azocan-1-yl-1-(3,4-dihydroxy-5-nitro-phenyl)-propan-1-one hydrochloride] |  |  | equally potent in inhibiting liver and brain COMT activity |  |  |
| Cl.Cl.O=C(CCN1CCN(c2cccc(C(F)(F)F)c2)CC1)c1cc(O)c(O)c([N+](=O)[O-])c1 [Compound 18, 1-(3,4-Dihydroxy-5-nitro-phenyl)-3-[4-(3-trifluoromethyl-phenyl)-piperazin-1-yl]-propan-1-one dihydrochloride] |  |  | much more potent upon liver COMT than brain COMT | long acting COMT inhibitor with limited activity in the brain |  |
